Results on twelve compounds are retold here after PubChem BioAssay (NCI).

Values joined by “and” are separate entries in the source; they are usually repeats but may differ in a detail not shown here. Identical values can stand only once.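 Exposure lasted 48 hours, with cells grown in 96-well plates and compounds tested at five concentrations. GI50 = concentration required for 50% inhibition of growth. At the TGI there is no net growth.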

Test systems include OVCAR-8 ovarian; MALME-3M melanoma; M14 melanoma; SNB-75 CNS; HCT-116 colon; SF-295 CNS; RXF 393 renal; SR leukemia; OVCAR-5 ovarian; NCI-H522 lung.
Holding throughout (experiment): NCI tumour cell line growth inhibition, 48 h

Consider `COc1cc(-c2nc3ccccc3s2)ccc1NC(=O)COc1ccc(Cl)cc1`, for which the GI50 in the test on OVCAR-8 ovarian is 2.79 µM; in the test with MALME-3M melanoma, 5.07 µM; in the test with M14 melanoma, 8.54 µM; in the test with SNB-75 CNS, 42.9 µM; with HCT-116 colon, 4.41 µM; with SF-295 CNS, 3.35 µM. The GI50 with RXF 393 renal is 3.25 µM; in the test with SR leukemia, 76.5 µM; in the test on OVCAR-5 ovarian, 13.4 µM; with NCI-H522 lung it was 2.71 µM. Besides, the TGI was 46.6 µM with OVCAR-8 ovarian; above 100 µM in the test with MALME-3M melanoma; above 100 µM in the test on M14 melanoma; above 100 µM with SNB-75 CNS; above 100 µM in the test on HCT-116 colon; 25.1 µM in the test on SF-295 CNS. The TGI with RXF 393 renal is 11.3 µM; in the test on SR leukemia it was above 100 µM; in the test with OVCAR-5 ovarian it was above 100 µM; in the test on NCI-H522 lung it was 12.1 µM.
Turning to `O=C1C(=O)c2c(nc3ccc(Br)cn23)-c2ccccc21`, the GI50 with OVCAR-8 ovarian was 0.575 µM; in the test on MALME-3M melanoma, 0.19 µM; in the test on M14 melanoma it was 0.489 µM; with SNB-75 CNS, 0.738 µM; with HCT-116 colon it was 0.314 µM; with SF-295 CNS, 1.61 µM. Further, the GI50 in the test on RXF 393 renal is 1.55 µM; in the test on SR leukemia, 0.33 µM; in the test with OVCAR-5 ovarian, 1.78 µM; with NCI-H522 lung, 0.588 µM. For the same compound, the TGI amounted to 1.68 µM in the test on OVCAR-8 ovarian; 0.371 µM in the test on MALME-3M melanoma; 1.02 µM with M14 melanoma; 2.37 µM in the test with SNB-75 CNS; 1.2 µM in the test on HCT-116 colon; 3.02 µM with SF-295 CNS. Moreover, the TGI was 2.97 µM in the test on RXF 393 renal, 1.52 µM with SR leukemia, 3.25 µM with OVCAR-5 ovarian and 2.22 µM in the test on NCI-H522 lung.
On to `CCCCCCCCN(CCCCCCCC)CCCCCCNc1cc(OC)cc2cccnc12`, for which the GI50 in the test on OVCAR-8 ovarian was 3.39 µM; in the test with MALME-3M melanoma it was 6.92 µM; with M14 melanoma, 3.33 µM; with SNB-75 CNS, 15.3 µM; with HCT-116 colon it was 2.37 µM; in the test on SF-295 CNS, 14 µM. The GI50 with RXF 393 renal is 14.2 µM; in the test on SR leukemia it was 6.7 µM; with OVCAR-5 ovarian, 15.3 µM; with NCI-H522 lung, 1.9 µM. For the same compound, the TGI with OVCAR-8 ovarian was 12.4 µM; with MALME-3M melanoma it was 21.9 µM; with M14 melanoma, 12.4 µM; in the test on SNB-75 CNS, 29 µM; with HCT-116 colon, 6.49 µM; with SF-295 CNS, 29.3 µM. Besides, the TGI in the test on RXF 393 renal stood at 28.5 µM; in the test on SR leukemia, 59.1 µM; in the test with OVCAR-5 ovarian, 29.6 µM; in the test with NCI-H522 lung it was 4.78 µM.
With `COC(=O)C(=O)C(C(=O)C(=O)Nc1nc2ccc(C)cc2s1)c1nc2ccc([N+](=O)[O-])cc2[nH]c1=O` (stereo not given), the TGI in the test with OVCAR-8 ovarian, in the test on MALME-3M melanoma, in the test with M14 melanoma, in the test on SNB-75 CNS, in the test with HCT-116 colon and in the test with SF-295 CNS was above 100 µM throughout. For the same compound, the TGI with RXF 393 renal, with SR leukemia, in the test on OVCAR-5 ovarian and in the test with NCI-H522 lung was above 100 µM throughout.
On to `C=CC(C1=CC(=O)C(OC)=CC1=O)c1ccccc1` (stereo not given), for which the TGI in the test on OVCAR-8 ovarian is 58.7 µM; with MALME-3M melanoma, 28.7 µM; with M14 melanoma, 37.7 µM; with SNB-75 CNS, 39.1 µM; with HCT-116 colon, 23.4 µM; with SF-295 CNS, 27.6 µM. For the same compound, the TGI with RXF 393 renal is 29.2 µM; in the test on SR leukemia, 26.5 µM; with OVCAR-5 ovarian, 39 µM; in the test on NCI-H522 lung, 23.8 µM.
As to `CCN(CC)CCOc1ccccc1/C=C/c1noc2ccccc12`, the TGI stood at 24.8 µM in the test with OVCAR-8 ovarian; 13.9 µM with MALME-3M melanoma; 15.4 µM in the test with M14 melanoma; 22.2 µM with SNB-75 CNS; 19.2 µM in the test with HCT-116 colon; 29.7 µM in the test on SF-295 CNS. For the same compound, the TGI with RXF 393 renal was 9.97 µM; with SR leukemia, 68 µM; in the test with OVCAR-5 ovarian, 25.1 µM; in the test with NCI-H522 lung, 22.2 µM.
As to `COc1ccc(C(=O)COC(=O)[C@H](C[Se][Se]C[C@H](NC(=O)c2ccc(Br)cc2F)C(=O)OCC(=O)c2ccc(OC)cc2)NC(=O)c2ccc(Br)cc2F)cc1`, the GI50 in the test on OVCAR-8 ovarian is 0.513 µM; in the test with MALME-3M melanoma it was 2.04 µM; with M14 melanoma it was 0.588 µM; with SNB-75 CNS, 0.347 µM; in the test on HCT-116 colon, 0.949 µM; in the test with SF-295 CNS it was 0.211 µM. Further, the GI50 is 1.56 µM in the test with RXF 393 renal, 0.478 µM in the test with SR leukemia, 0.816 µM in the test with OVCAR-5 ovarian and 0.66 µM in the test with NCI-H522 lung. Further, the TGI is 1.86 µM in the test with OVCAR-8 ovarian; 4.4 µM in the test with MALME-3M melanoma; 1.85 µM with M14 melanoma; 1.26 µM in the test on SNB-75 CNS; 2.78 µM in the test on HCT-116 colon; 0.61 µM in the test on SF-295 CNS. Moreover, the TGI with RXF 393 renal worked out at 3.19 µM; in the test on SR leukemia, 4.82 µM; with OVCAR-5 ovarian, 2.54 µM; with NCI-H522 lung, 2.02 µM.
For the compound `CCCCCCCCCCCCCC(=O)OCC1OC(n2cc(F)c(=O)[nH]c2=O)C(NC(=O)OCc2ccccc2)C(OC(=O)CCCCCCCCCCCCC)C1O` (stereo not given), the TGI with OVCAR-8 ovarian, with MALME-3M melanoma, with M14 melanoma, in the test with SNB-75 CNS, with HCT-116 colon and with SF-295 CNS was above 100 µM in each case. The TGI with RXF 393 renal, in the test with SR leukemia, in the test on OVCAR-5 ovarian and in the test with NCI-H522 lung was above 100 µM in each case.
Turning to `O=CNc1ncn[nH]1`, the TGI with OVCAR-8 ovarian, in the test on MALME-3M melanoma, in the test with M14 melanoma, in the test with SNB-75 CNS, with HCT-116 colon and with SF-295 CNS was above 100 µM each time. The TGI in the test with RXF 393 renal, in the test on SR leukemia, in the test with OVCAR-5 ovarian and with NCI-H522 lung was above 100 µM throughout.
Regarding `CC1=NOC(=O)/C1=C/c1cccc2ccccc12`, the TGI with OVCAR-8 ovarian, in the test on MALME-3M melanoma, in the test on M14 melanoma, in the test on SNB-75 CNS, with HCT-116 colon and in the test with SF-295 CNS was above 100 µM each time. The TGI in the test with RXF 393 renal, with SR leukemia, in the test with OVCAR-5 ovarian and in the test on NCI-H522 lung was above 100 µM in each case.
In the case of `c1cc2[nH]ncc2cc1-c1nc2ccc3[nH]ncc3c2c2c1CCCC2`, the GI50 with OVCAR-8 ovarian was 2.66 µM; in the test on MALME-3M melanoma, 1.08 µM; in the test with M14 melanoma, 0.523 µM; in the test on SNB-75 CNS it was 0.998 µM; in the test with HCT-116 colon, 0.455 µM; with SF-295 CNS it was 1.84 µM. The GI50 is 0.822 µM in the test on RXF 393 renal, 0.338 µM in the test on SR leukemia, 3.06 µM in the test with OVCAR-5 ovarian and 0.424 µM in the test on NCI-H522 lung. The TGI in the test with OVCAR-8 ovarian is 15.9 µM; in the test on MALME-3M melanoma it was 4.22 µM; in the test with M14 melanoma, 10.8 µM; with SNB-75 CNS it was 4.36 µM; in the test on HCT-116 colon it was 10.6 µM; in the test on SF-295 CNS, 7.58 µM. Besides, the TGI was 2.86 µM with RXF 393 renal, 18.5 µM in the test on OVCAR-5 ovarian and 3.16 µM in the test with NCI-H522 lung.
With `CN(C)CCNC(=O)C(C)(C)Oc1ccc(C(=O)c2ccc(Cl)cc2)cc1Cl`, the TGI with OVCAR-8 ovarian was 24.5 µM; in the test on MALME-3M melanoma, 11.1 µM; in the test with M14 melanoma it was 3.67 µM and 5.99 µM; with SNB-75 CNS, 24.8 µM; with HCT-116 colon, 20 µM; in the test with SF-295 CNS, 22.6 µM. Also, the TGI with RXF 393 renal is 21.7 µM; with SR leukemia, above 100 µM; with OVCAR-5 ovarian it was 28.9 µM; in the test on NCI-H522 lung, 28.2 µM. The GI50 was 3.9 µM in the test with MALME-3M melanoma; 1.82 µM in the test with M14 melanoma; 9.71 µM with SNB-75 CNS; 4.74 µM in the test with SF-295 CNS; 9.94 µM with RXF 393 renal; 3.48 µM with SR leukemia.
